# Measurements: patent US10603369B2, “Combination vaccines with lower doses of antigen and/or adjuvant” (GlaxoSmithKline Biologicals SA, priority 2011, dated 2020)
# Legend:
# [1] = Adsorption of TLR agonist to aluminium hydroxide adjuvant; format: physicochemical
# physchem = conditions: water
structure (smiles),measurement,setting,value
Cc1ccc2c(c1)nc(N)c1ncc(CCc3ccc(OCCOCCOCCC(F)(F)P(=O)(O)O)cc3C)cc12 [compound T],adsorption to aluminium hydroxide,[1],adsorbs well
same,solubility,physchem,~4000 µg/mL
